Measurements reported in patent publication US9243281B2, “Neuroprotective chemicals and methods for identifying and using same” (Board of Regents of The University of Texas System, priority 2013, dated 2016).

Legend:
[1] = tested on: hippocampal neurogenesis (Dentate Gyrus); test: in vivo neurogenesis assay (BrdU+ cells in dentate gyrus); design: species or system mice; settings: living mice; vehicle (DMSO) 7.3
Excerpt: The screen was simple in concept. With help from chemists in the Department of Biochemistry at UTSWMC, we selected 1,000 druglike chemicals from the 250,000 compounds in our high throughput screening center. The compounds were selected to preserve representative chemical diversity of the entire library. They were further selected to enhance the representation of chiral molecules, and to avoid untoward chemical properties such as reactive moieties. The 1,000 molecules were randomly pooled into groups of ten, and each pool was administered directly into the left ventricle of two adult mice. Intracranial delivery was facilitated by stereotactic positioning of a canula fed directly by an Alzet mini-pump containing the mixture of ten chemicals. The drug mixture was administered over a week-long period at concentrations anticipated to deliver mid-nanomolar levels of the ten test compounds. Daily injections of the thymidine analog, bromodeoxyuridine (BrdU), were coadministered in order to monitor the formation of new hippocampal nerve cells. Following compound administration, animals were sacrificed such that brain tissue could be recovered, sectioned and stained with antibodies to BrdU. […]

[2] = biological target: T1, p70 (NAMPT) (Homo sapiens, UniProt P43490); test: binding competition for photo-crosslinking of P7C3-S326 to p70 in H2122 cells; settings: 0.3 μM P7C3-S326 plus 5 μM competitor, p70 band intensity, P7C3-S326 alone compared with plus competitor, vehicle 1.0
T1 construct: endogenous in cells; host or cells: H2122 lung cancer cells
Procedure: Cultured cells were co-exposed to P7C3-S326 (0.3 uM) and the individual P7C3 variants (5 uM), exposed to UV light, lysed, clicked to a fluorescent dye and run on SDS gels (FIG. 11).
P7C3-S326 was diluted to 0.3 μM in culture medium to treat H2122 cells. After incubation at 37° C. for 2 hours, H2122 cells were irradiated for 15 minutes under 306 nm ultraviolet light in a Stratalinker 2400 (Stratagene). Cells were then harvested by dissolving in 1% SDS lysis buffer 50 mM HEPES, pH 8.0, 2 mM MgCl2, 10 mM KCl, 1% SDS, 50 units/ml of Benzonase (Sigma), supplemented with Sigmafast protease inhibitor (Sigma).
The reaction was incubated at room temperature with constant agitation at 1,000 rpm on a thermomixer (Eppendorf) for 1 hour. Samples were then mixed with SDS sample loading buffer and loaded on an 8% SDS-PAGE gel, separated, and imaged using a Typhoon imager (filter settings: excitation 533 nm, emission 555 nm, and high sensitivity).
H2122 cells were incubated with the P7C3-S326 (0.3 μM) in the absence or presence of P7C3 analogs for 2 hours following by UV crosslinking. […] The samples were run on SDS-PAGE gels scanned using a Typhoon Imager. The p70 band intensity was analyzed and quantified by Image J, and the relative intensity in each assay was normalized to that of the DMSO control.

T1 sequence (P43490 whole entry): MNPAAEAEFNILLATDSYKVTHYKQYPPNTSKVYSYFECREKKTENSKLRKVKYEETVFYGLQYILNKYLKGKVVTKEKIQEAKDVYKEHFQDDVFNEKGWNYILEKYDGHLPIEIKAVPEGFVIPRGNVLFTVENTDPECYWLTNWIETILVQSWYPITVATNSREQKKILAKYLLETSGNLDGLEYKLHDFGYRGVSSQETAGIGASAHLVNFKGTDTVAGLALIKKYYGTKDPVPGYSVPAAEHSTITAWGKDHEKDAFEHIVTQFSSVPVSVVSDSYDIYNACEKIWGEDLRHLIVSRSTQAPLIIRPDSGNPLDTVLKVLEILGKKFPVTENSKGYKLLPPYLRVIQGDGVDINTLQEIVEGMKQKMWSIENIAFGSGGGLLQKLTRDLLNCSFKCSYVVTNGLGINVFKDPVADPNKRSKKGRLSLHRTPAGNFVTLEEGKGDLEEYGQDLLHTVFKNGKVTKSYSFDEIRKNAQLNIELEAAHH

SMILES	Neurogenesis # BrdU+ Cells (X10E06)/mm3 Dentate Gyrus [1]	Binding competition [2]
N=c1ccccn1CC(O)Cn1c2ccc(Br)cc2c2cc(Br)ccc21 (stereo not drawn) [S5]	12.2 (X10E06)/mm3	1.4
Cc1cc(C)n(CC(O)Cn2c3ccc(Br)cc3c3cc(Br)ccc32)n1 (stereo not drawn) [S25]	7.0 (X10E06)/mm3	1.4
Brc1ccc2c(c1)c1cc(Br)ccc1n2CCNc1ccccc1 [S115]	–	3.7
N#Cc1ccc2c(c1)c1cc(C#N)ccc1n2CC(O)CSc1ccccc1 (stereo not drawn) [S110]	10.5 (X10E06)/mm3	6.2
OC(CCc1ccccc1)Cn1c2ccc(Br)cc2c2cc(Br)ccc21 (stereo not drawn) [S21]	8.8 (X10E06)/mm3	2.3
CNCCC=C1c2ccccc2CCc2ccccc21.Cl [S89, Nortriptyline, reference compound]	8.7 (X10E06)/mm3	1.3
O=C1CC2(CCCC2)CC(=O)N1CCCCN1CCN(c2ncccn2)CC1 [S127, Buspar, reference compound]	6.9 (X10E06)/mm3	1.2
OCCn1c2ccc(Br)cc2c2cc(Br)ccc21 [S171]	13.1 (X10E06)/mm3	3.2
O=C(O)Cn1c2ccc(Br)cc2c2cc(C(=O)O)ncc21 [S227]	12.9 (X10E06)/mm3	0.9
O=S(=O)(CC(O)Cn1c2ccc(Br)cc2c2cc(Br)ccc21)c1cccc(O)c1 (stereo not drawn) [S93]	11.9 (X10E06)/mm3	1.4
NCC(O)CN1c2ccccc2CCc2ccccc21 (stereo not drawn) [S140]	11.7 (X10E06)/mm3	1.2
O=S(=O)(CC(O)Cn1c2ccc(Br)cc2c2cc(Br)ccc21)c1ccccc1 (stereo not drawn) [S28]	13.6 (X10E06)/mm3	2.8
COc1cccc(SCC(F)Cn2c3ccc(Br)cc3c3cc(Br)ccc32)c1 (stereo not drawn) [S79]	13.7 (X10E06)/mm3	1.0
CN(C)CCCC1(c2ccc(F)cc2)OCc2cc(C#N)ccc21 (stereo not drawn) [S119, Celexa, reference compound]	8.6 (X10E06)/mm3	1.2
COc1cccc(SCC(O)Cn2c3ccc(Br)cc3c3cc(Br)ccc32)c1 (stereo not drawn) [S77]	12.0 (X10E06)/mm3	3.3
CN(C)C(=O)Cn1c2ccc(Br)cc2c2cc(Br)ccc21 [S215]	8.3 (X10E06)/mm3	3.6
COc1cccc(NCC(O)Cn2c3ccccc3c3cc(Br)ccc32)c1 (stereo not drawn) [S29]	9.5 (X10E06)/mm3	4.2
OC(COc1ccccn1)Cn1c2ccc(Br)cc2c2cc(Br)ccc21 (stereo not drawn) [S147]	13.3 (X10E06)/mm3	3.4
O=S(=O)(CC(O)Cn1c2ccc(Cl)cc2c2cc(Cl)ccc21)c1ccccc1 (stereo not drawn) [S52]	10.8 (X10E06)/mm3	4.3
CN(C)C[C@@H](O)CN1c2ccccc2CCc2ccccc21 [S182]	6.8 (X10E06)/mm3	1.1
OC(COc1ccccc1)Cn1c2ccc(Br)cc2c2ncccc21 (stereo not drawn) [S194]	8.1 (X10E06)/mm3	5.1
O=S(=O)(C[C@H](O)Cn1c2ccc(Br)cc2c2cc(Br)ccc21)c1ccccc1 [S51]	13.2 (X10E06)/mm3	2.4
OC(COc1ccccc1)Cn1c2ccc(Br)cc2c2cccnc21 (stereo not drawn) [S186]	8.1 (X10E06)/mm3	3.4
N#Cc1cc2c(cn1)[nH]c1ccc(Br)cc12 [S221]	14.8 (X10E06)/mm3	2.9
COc1cccc(N(CC(O)Cn2c3ccc(Br)cc3c3cc(Br)ccc32)C(C)=O)c1 (stereo not drawn) [S9]	11.9 (X10E06)/mm3	2.0
COc1cccc(NCC(O)CN2c3ccc(Br)cc3CCc3cc(Br)ccc32)c1 (stereo not drawn) [S76]	14.2 (X10E06)/mm3	1.1
CN(C)CCCN1c2ccccc2Sc2ccc(Cl)cc21 [S121, CPZ, reference compound]	11.1 (X10E06)/mm3	2.3

SMILES	Neurogenesis # BrdU+ Cells (X10E06)/mm3 Dentate Gyrus [1]	Binding competition [2]
COc1ccc([C@H](CN(C)C)C2(O)CCCCC2)cc1 [S124, Effexor, reference compound]	8.9 (X10E06)/mm3	1.1
CN[C@H]1CC[C@@H](c2ccc(Cl)c(Cl)c2)c2ccccc21 [S123, Zoloft, reference compound]	9.4 (X10E06)/mm3	1.5
CC(C(=O)O)n1c2ccc(Br)cc2c2cc(Br)ccc21 (stereo not drawn) [S211]	11.5 (X10E06)/mm3	1.2
COc1ccc(OCC2(Cn3c4ccc(Br)cc4c4cc(Br)ccc43)NN2)cc1 [S57]	11.9 (X10E06)/mm3	–
Cc1ccc2[nH]c3ccc(C)cc3c2c1 [S237]	11.8 (X10E06)/mm3	1.5
[O-][n+]1cccc2c1c1cc(Br)ccc1n2CC(O)COc1ccccc1 (stereo not drawn) [S198]	11.0 (X10E06)/mm3	5.1
OC(COc1ccccc1)CN1c2ccccc2CCc2ccccc21 (stereo not drawn) [S135]	7.1 (X10E06)/mm3	3.4
CCOC(=O)c1cc2c(cn1)[nH]c1ccc(Br)cc12 [S205]	14.6 (X10E06)/mm3	2.5
O=C(O)Cn1c2ccc(Br)cc2c2cc(Br)ccc21 [S165]	–	1.3
CN(C)CCCN1c2ccccc2CCc2ccccc21.Cl [S88, Imipramine, reference compound]	7.8 (X10E06)/mm3	–
CC(C)(C)OC(=O)CCOCCOCCOCCOc1ccc(S(=O)(=O)CC(O)Cn2c3ccc(Br)cc3c3cc(Br)ccc32)cc1 (stereo not drawn) [S130]	–	2.9
COc1cccc(N(C)CC(O)Cn2c3ccc(Br)cc3c3cc(Br)ccc32)c1 (stereo not drawn) [S1]	10.8 (X10E06)/mm3	–
COc1ccc(OCC(O)Cn2c3ccc(Br)cc3c3cc(Br)ccc32)cc1 (stereo not drawn) [S49]	12.0 (X10E06)/mm3	–
OC(CNc1cccc2ccccc12)Cn1c2ccccc2c2ccccc21 (stereo not drawn) [S180]	–	3.2
OC(CNC1CCCC1)Cn1c2ccc(Br)cc2c2cc(Br)ccc21 (stereo not drawn) [S176]	–	4.1
OC(Cn1c2ccccc2c2ccccc21)Cn1c2ccc(Br)cc2c2cc(Br)ccc21 (stereo not drawn) [S35]	8.6 (X10E06)/mm3	–
OC(CCn1c2ccc(Br)cc2c2cc(Br)ccc21)CNc1ccccc1 (stereo not drawn) [S26]	7.5 (X10E06)/mm3	–
FC(CNc1ccccc1)Cn1c2ccc(Br)cc2c2cc(Br)ccc21 (stereo not drawn) [S55]	13.8 (X10E06)/mm3	–
CC(NC(C)(C)C)C(=O)c1cccc(Cl)c1 (stereo not drawn) [S125, Wellbutrin, reference compound]	–	1.1
CN(C)C[C@H](O)CN1c2ccccc2CCc2ccccc21 [S181]	–	0.9
C#Cc1ccc2c(c1)c1cc(C#C)ccc1n2CC(O)CNc1cccc(OC)c1 (stereo not drawn) [S64]	8.6 (X10E06)/mm3	–
Fc1ccc([C@@H]2CCNC[C@H]2COc2ccc3c(c2)OCO3)cc1 [S120, Paxil, reference compound]	–	1.3
O=C(COc1cccc(S(=O)(=O)CC(O)Cn2c3ccc(Br)cc3c3cc(Br)ccc32)c1)NCc1ccccc1 (stereo not drawn) [S102]	8.9 (X10E06)/mm3	–
Cn1c2ccc(Br)cc2c2cc(Br)ccc21 [S163]	–	2.5
O=C(Cn1c2ccc(Br)cc2c2cc(Br)ccc21)Nc1ccccc1 [S112]	–	1.2
Brc1ccc2[nH]c3ccc(Br)cc3c2c1 [S162]	–	2.3
OC(CNc1ccccc1)Cn1c2ccc(C(F)(F)F)cc2c2cc(C(F)(F)F)ccc21 (stereo not drawn) [S75]	–	2.5
